The assay concerns the target IDH1 R132H (Homo sapiens (Human), UniProt O75874, R132H). In words: Assays for IDH1 R132H Inhibitors (NADPH/aKG, resazurin detection). The assay is classed as biochemical. The following applies: IDH1 R132H enzyme. As to the method: Assays were conducted in a volume of […] assay buffer (150 mM NaCl, 10 mM MgCl2, 20 mM Tris pH 7.5, 0.03% bovine serum albumin) as follows in a standard 384-well plate: To 25 ul of substrate mix (8 uM NADPH, 2 mM aKG), 1 μl of test compound was added in DMSO. […] The reaction was incubated for 50 minutes at room temperature, then 25 μl of detection mix (30 μM resazurin, […]) was added and the mixture further incubated for 5 minutes at room temperature.

[1] abbreviates: Table 2, read-out: IDHR132H Activity.

pIC50: −log10 of the molar value. Like-named read-outs stand apart in the source and are kept apart here. Bounds are passed on as bounds.

Chain of IDH1 R132H (O75874 whole entry R132H): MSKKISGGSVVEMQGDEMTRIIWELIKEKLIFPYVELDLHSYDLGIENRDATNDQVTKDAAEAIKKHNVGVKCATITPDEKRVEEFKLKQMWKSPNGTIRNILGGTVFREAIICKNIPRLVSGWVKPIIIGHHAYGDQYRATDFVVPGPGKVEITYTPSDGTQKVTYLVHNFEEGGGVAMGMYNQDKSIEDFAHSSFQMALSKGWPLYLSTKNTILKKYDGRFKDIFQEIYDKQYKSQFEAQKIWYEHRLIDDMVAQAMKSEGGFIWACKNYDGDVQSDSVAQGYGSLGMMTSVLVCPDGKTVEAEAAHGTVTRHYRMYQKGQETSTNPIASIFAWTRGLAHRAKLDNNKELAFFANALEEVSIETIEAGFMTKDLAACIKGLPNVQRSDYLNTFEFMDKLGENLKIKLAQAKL

In the case of `COCCNC(=O)N1CCN(c2nc(C3CC3)c3c(c2C#N)CC(C)(C)OC3)C[C@H]1C(C)C` [Compound 353], the pIC50 under setting [1] was 6.00 to 6.30. `CC(C)c1nc(N2CCN(C(=O)c3ccoc3)[C@H](C)C2)c(C#N)c2c1COCC2` [Compound 140, (R)-6-(4-(furan-3-carbonyl)-3-methylpiperazin-1-yl)-8-isopropyl-3,4-dihydro-1H-pyrano[3,4-c]pyridine-5-carbonitrile]: the pIC50 under setting [1] is 5.00 to 6.00. On to `CON(C)CC(=O)N1CCN(c2nc(C3CC3)c3c(c2C#N)CC(C)(C)OC3)C[C@H]1C(C)C` [Compound 338], for which the pIC50 under setting [1] was 5.00 to 6.00.

For the compound `CC(C)c1nc(N2CCN(C(=O)NC3CCCCC3)CC2)c(C#N)c2c1CCCC2` [Compound 115, 4-(4-cyano-1-isopropyl-5,6,7,8-tetrahydroisoquinolin-3-yl)-N-cyclohexylpiperazine-1-carboxamide], under setting [1], the pIC50 is 5.00 to 6.00. On the same count and under the same terms, with `Cc1ncoc1C(=O)N1CCN(c2nc(C(C)C)c3c(c2C#N)CC(C)(C)OC3)C[C@H]1C` [Compound 197, (R)-8-isopropyl-3,3-dimethyl-6-(3-methyl-4-(4-methyloxazole-5-carbonyl)piperazin-1-yl)-3,4-dihydro-1H-pyrano[3,4-c]pyridine-5-carbonitrile] the figure was 5.00 to 6.00. As to `CCOC(=O)C1CN(c2nc(C3CCCCC3)c3c(c2C#N)CCOC3)CCN1C(=O)c1ccoc1` (stereo not drawn) [Compound 258, ethyl 4-(5-cyano-8-cyclohexyl-3,4-dihydro-1H-pyrano[3,4-c]pyridin-6-yl)-1-(furan-3-carbonyl) piperazine-2-carboxylate], under setting [1], the pIC50 is 5.00 to 6.00. Same read-out and setting: under `CC(C)c1nc(N2CCN(S(=O)(=O)c3cccs3)[C@H](C)C2)c(C#N)c2c1COC(C)(C)C2` [Compound 170, (R)-8-isopropyl-3,3-dimethyl-6-(3-methyl-4-(thiophen-2-ylsulfonyl)piperazin-1-yl)-3,4-dihydro-1H-pyrano[3,4-c]pyridine-5-carbonitrile] stands 5.00 to 6.00. Consider `CC(C)c1nc(N2CCN(C(=O)c3ccco3)C(C)C2)c(C#N)c2c1COC(C)(C)C2` (stereo not drawn) [Compound 137, 6-(4-(furan-2-carbonyl)-3-methylpiperazin-1-yl)-8-isopropyl-3,3-dimethyl-3,4-dihydro-1H-pyrano[3,4-c]pyridine-5-carbonitrile], for which the pIC50 under setting [1] is 5.00 to 6.00. As to `N#Cc1c(N2CCN(C(=O)c3ccc4[nH]ccc4c3)CC2)nc(C2CCCCC2)c2c1CCOC2` [Compound 122, 6-(4-(1H-indole-5-carbonyl)piperazin-1-yl)-8-cyclohexyl-3,4-dihydro-1H-pyrano[3,4-c]pyridine-5-carbonitrile], the pIC50 under setting [1] was 5.00 to 6.00.

Turning to `CCCCCNC(=O)N1CCN(c2nc(C3CC3)c3c(c2C#N)CC(C)(C)OC3)C[C@H]1C(C)C` [Compound 327], the pIC50 under setting [1] is 5.00 to 6.00.

Regarding `CCOC(=O)C1CN(c2nc(C3CCCCC3)c3c(c2C#N)CCOC3)CCN1C(=O)c1ccoc1C` (stereo not drawn) [Compound 277, ethyl 4-(5-cyano-8-cyclohexyl-3,4-dihydro-1H-pyrano[3,4-c]pyridin-6-yl)-1-(2-methylfuran-3-carbonyl)piperazine-2-carboxylate], the pIC50 under setting [1] is 5.00 to 6.00. On to `CC(C)c1nc(N2CCN(C(=O)C3CCOC3)[C@H](C)C2)c(C#N)c2c1COC(C)(C)C2` (stereo partly drawn) [Compound 253, 8-isopropyl-3,3-dimethyl-6-((3R)-3-methyl-4-(tetrahydrofuran-3-carbonyl)piperazin-1-yl)-3,4-dihydro-1H-pyrano[3,4-c]pyridine-5-carbonitrile], for which, under setting [1], the pIC50 was 5.00 to 6.00. Same read-out and setting: with `CC1(C)Cc2c(C#N)c(N3CCN(C(=O)c4ccco4)[C@H](c4ccccc4)C3)nc(C3CC3)c2CO1` [Compound 272] the figure was 6.00 to 6.30; with `Cc1occc1C(=O)N1CCN(c2nc(C3CCCCC3)c3c(c2C#N)CCOC3)C[C@H]1C` [Compound 184, (R)-8-cyclohexyl-6-(3-methyl-4-(2-methylfuran-3-carbonyl)piperazin-1-yl)-3,4-dihydro-1H-pyrano[3,4-c]pyridine-5-carbonitrile], 5.00 to 6.00.

With `CC(C)c1nc(N2CCN(C(=O)c3ccoc3)[C@H](C(C)C)C2)c(C#N)c2c1COC(C)(C)C2` [Compound 165, (R)-6-(4-(furan-3-carbonyl)-3-isopropylpiperazin-1-yl)-8-isopropyl-3,3-dimethyl-3,4-dihydro-1H-pyrano[3,4-c]pyridine-5-carbonitrile], under setting [1], the pIC50 was over 6.30. Still for that read-out and setting: with `CC(C)c1nc(N2CCN(C(=O)Cc3ccccc3F)[C@H](C)C2)c(C#N)c2c1COC(C)(C)C2` [Compound 219, (R)-6-(4-(2-(2-fluorophenyl)acetyl)-3-methylpiperazin-1-yl)-8-isopropyl-3,3-dimethyl-3,4-dihydro-1H-pyrano[3,4-c]pyridine-5-carbonitrile] the figure was 5.00 to 6.00; with `COC(=O)CN1CCN(c2nc(C3CC3)c3c(c2C#N)CC(C)(C)OC3)C[C@H]1C(C)C` [Compound 397, (R)-methyl 2-(4-(5-cyano-8-cyclopropyl-3,3-dimethyl-3,4-dihydro-1H-pyrano[3,4-c]pyridin-6-yl)-2-isopropylpiperazin-1-yl)acetate], 5.00 to 6.00. For `C/C=C/C(=O)N1CCc2c(C#N)c(N3CCN(C(=O)C4CC4)[C@H](C4CC4)C3)nc(C3CC3)c2C1` [Compound 499, (R,E)-7-but-2-enoyl-3-(4-(cyclopropanecarbonyl)-3-cyclopropylpiperazin-1-yl)-1-cyclopropyl-5,6,7,8-tetrahydro-2,7-naphthyridine-4-carbonitrile], the pIC50 (Table 3, read-out: R132H IC50) is 6.00 to 6.30. As for `COCC(=O)N1CCN(c2nc(C3CCCCC3)c3c(c2C#N)CCOC3)C[C@H]1C` [Compound 341], under setting [1], the pIC50 was 5.00 to 6.00.

As to `C=CCNC(=O)N1CCN(c2nc(C(C)C)c3c(c2C#N)CC(C)(C)OC3)CC1C(=O)OCC` (stereo not drawn) [Compound 331, ethyl 1-(allylcarbamoyl)-4-(5-cyano-8-isopropyl-3,3-dimethyl-3,4-dihydro-1H-pyrano[3,4-c]pyridin-6-yl)piperazine-2-carboxylate], the pIC50 under setting [1] was 5.00 to 6.00. As for `C[C@@H]1CN(c2nc(C3CCCCC3)c3c(c2C#N)CCOC3)CCN1C(=O)Nc1ccc(F)cc1` [Compound 281, (R)-4-(5-cyano-8-cyclohexyl-3,4-dihydro-1H-pyrano[3,4-c]pyridin-6-yl)-N-(4-fluorophenyl)-2-methylpiperazine-1-carboxamide], under setting [1], the pIC50 was 5.00 to 6.00. The same measure, in the same setting: with `CC(C)[C@@H]1CN(c2nc(C3CC3)c3c(c2C#N)CC(C)(C)OC3)CCN1C(=O)CNC1CC1` [Compound 372, (R)-8-cyclopropyl-6-(4-(2-(cyclopropylamino)acetyl)-3-isopropylpiperazin-1-yl)-3,3-dimethyl-3,4-dihydro-1H-pyrano[3,4-c]pyridine-5-carbonitrile] the figure was 5.00 to 6.00. `COCCC(=O)N1CCN(c2nc(C3CC3)c3c(c2C#N)CC(C)(C)OC3)CC1C(=O)OC` (stereo not drawn) [Compound 388]: the pIC50 under setting [1] was 6.00 to 6.30. Take `C[C@@H]1CN(c2nc(C3CCCCC3)c3c(c2C#N)CC(C)(C)OC3)CCN1C(=O)Cc1ccccc1` [Compound 152, (R)-8-cyclohexyl-3,3-dimethyl-6-(3-methyl-4-(2-phenylacetyl)piperazin-1-yl)-3,4-dihydro-1H-pyrano[3,4-c]pyridine-5-carbonitrile]: under setting [1], the pIC50 was 5.00 to 6.00. Take `CC(C)NC(=O)N1CCN(c2nc(C3CC3)c3c(c2C#N)CC(C)(C)OC3)C[C@H]1C(C)C` [Compound 287]: the pIC50 under setting [1] was 5.00 to 6.00. Same read-out and setting: with `CC(C)[C@@H]1CN(c2nc(C3CC3)c3c(c2C#N)CC(C)(C)OC3)CCN1C(=O)OCC1CC1` [Compound 370, (R)-cyclopropylmethyl 4-(5-cyano-8-cyclopropyl-3,3-dimethyl-3,4-dihydro-1H-pyrano[3,4-c]pyridine-6-yl)-2-isopropylpiperazine-1-carboxylate] the figure was 5.00 to 6.00. Turning to `CC(C)[C@@H]1CN(c2nc(C3CC3)c3c(c2C#N)CC(C)(C)OC3)CCN1C(=O)CCc1ccco1` [Compound 447, (R)-8-cyclopropyl-6-(4-(3-(furan-2-yl)propanoyl)-3-isopropylpiperazin-1-yl)-3,3-dimethyl-3,4-dihydro-1H-pyrano[3,4-c]pyridine-5-carbonitrile], for the setting “Table 3, read-out: R132H IC50”, the pIC50 was 6.00 to 6.30. In the case of `CC1(C)Cc2c(C#N)c(N3CCN(C(=O)c4ccoc4)C(c4ccccc4)C3)nc(C3CCCCC3)c2CO1` (stereo not drawn) [Compound 143, 8-cyclohexyl-6-(4-(furan-3-carbonyl)-3-phenylpiperazin-1-yl)-3,3-dimethyl-3,4-dihydro-1H-pyrano[3,4-c]pyridine-5-carbonitrile], the pIC50 under setting [1] is 5.00 to 6.00. On to `COCCC(=O)N1CCN(c2nc(C3CC3)c3c(c2C#N)CC(C)(C)OC3)C[C@@H]1CC(C)C` [Compound 389], for which the pIC50 under setting [1] was 5.00 to 6.00. On to `CC[C@@H]1CN(c2nc(C(C)C)c3c(c2C#N)CC(C)(C)OC3)CCN1C(=O)Cc1cccs1` [Compound 206, (R)-6-(3-ethyl-4-(2-(thiophen-2-yl)acetyl)piperazin-1-yl)-8-isopropyl-3,3-dimethyl-3,4-dihydro-1H-pyrano[3,4-c]pyridine-5-carbonitrile], for which the pIC50 under setting [1] is over 6.30. Still for that read-out and setting: under `Cc1nc2ccccn2c1C(=O)N1CCN(c2nc(C3CC3)c3c(c2C#N)CC(C)(C)OC3)C[C@H]1C(C)C` [Compound 229] stands 5.00 to 6.00; under `CC1CN(c2nc(C3CCCC3)c3c(c2C#N)CC(C)(C)OC3)CCN1C(=O)c1ccco1` (stereo not drawn) [Compound 147, 8-cyclopentyl-6-(4-(furan-2-carbonyl)-3-methylpiperazin-1-yl)-3,3-dimethyl-3,4-dihydro-1H-pyrano[3,4-c]pyridine-5-carbonitrile], 5.00 to 6.00; under `Cc1occc1C(=O)N1CCN(c2nc(C(C)C)c3c(c2C#N)CC(C)(C)OC3)C[C@H]1C(C)C` [Compound 176, (R)-8-isopropyl-6-(3-isopropyl-4-(2-methylfuran-3-carbonyl)piperazin-1-yl)-3,3-dimethyl-3,4-dihydro-1H-pyrano[3,4-c]pyridine-5-carbonitrile], over 6.30.
